Assay results: patent US20240158412A1 (Faxian Therapeutics, LLC, priority 2021, published 2024)

molecular target: USP7 (Homo sapiens, UniProt Q93009); assay: biochemical
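Also: fluorescence intensity readout of USP7 enzymatic activity, reaction incubated 90 min at room temperature.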
Method: Example A. Biochemical Assay of USP7 Inhibitor Potency (IC50)
Fluorescence intensity assay of USP7 activity in the presence USP7 inhibitors. Recombinant USP7 protein (catalogue number E-519) and the fluorescence substrate ubiquitin-rhodamine 110 (Rh110) (catalogue number U-555) were purchased from Boston Biochem (840 Memorial Drive, Cambridge, MA 02139). The reaction was carried out in buffer 20 mM HEPES, pH 7.3, 150 mM NaCl, 1 mM TCEP, 125 μg/mL BSA at room temperature in a black 384-well Microplate (Greiner, catalog number 781076).
Test compounds were dissolved in DMSO to make 50 mM stock solution. […] In wells of a black 384-well Microplate, 15 μl of 100 pM of USP7 enzyme was added to each well with pre-diluted compounds and incubated at room temperature for 30 minutes, followed by addition of 10 μl of ubiquitin-rhodamine 110 (Rh110) substrate to reach 160 nM final concentration. The reaction mixtures were incubated for additional 90 minutes at room temperature. The fluorescence signal of the digested substrate was measured on an EnVision microplate reader (PerkinElmer,), using excitation at 485 nm and emission at 535 nm. The IC50 values were calculated using XLfit software.

Sequence of USP7 (Q93009 whole entry): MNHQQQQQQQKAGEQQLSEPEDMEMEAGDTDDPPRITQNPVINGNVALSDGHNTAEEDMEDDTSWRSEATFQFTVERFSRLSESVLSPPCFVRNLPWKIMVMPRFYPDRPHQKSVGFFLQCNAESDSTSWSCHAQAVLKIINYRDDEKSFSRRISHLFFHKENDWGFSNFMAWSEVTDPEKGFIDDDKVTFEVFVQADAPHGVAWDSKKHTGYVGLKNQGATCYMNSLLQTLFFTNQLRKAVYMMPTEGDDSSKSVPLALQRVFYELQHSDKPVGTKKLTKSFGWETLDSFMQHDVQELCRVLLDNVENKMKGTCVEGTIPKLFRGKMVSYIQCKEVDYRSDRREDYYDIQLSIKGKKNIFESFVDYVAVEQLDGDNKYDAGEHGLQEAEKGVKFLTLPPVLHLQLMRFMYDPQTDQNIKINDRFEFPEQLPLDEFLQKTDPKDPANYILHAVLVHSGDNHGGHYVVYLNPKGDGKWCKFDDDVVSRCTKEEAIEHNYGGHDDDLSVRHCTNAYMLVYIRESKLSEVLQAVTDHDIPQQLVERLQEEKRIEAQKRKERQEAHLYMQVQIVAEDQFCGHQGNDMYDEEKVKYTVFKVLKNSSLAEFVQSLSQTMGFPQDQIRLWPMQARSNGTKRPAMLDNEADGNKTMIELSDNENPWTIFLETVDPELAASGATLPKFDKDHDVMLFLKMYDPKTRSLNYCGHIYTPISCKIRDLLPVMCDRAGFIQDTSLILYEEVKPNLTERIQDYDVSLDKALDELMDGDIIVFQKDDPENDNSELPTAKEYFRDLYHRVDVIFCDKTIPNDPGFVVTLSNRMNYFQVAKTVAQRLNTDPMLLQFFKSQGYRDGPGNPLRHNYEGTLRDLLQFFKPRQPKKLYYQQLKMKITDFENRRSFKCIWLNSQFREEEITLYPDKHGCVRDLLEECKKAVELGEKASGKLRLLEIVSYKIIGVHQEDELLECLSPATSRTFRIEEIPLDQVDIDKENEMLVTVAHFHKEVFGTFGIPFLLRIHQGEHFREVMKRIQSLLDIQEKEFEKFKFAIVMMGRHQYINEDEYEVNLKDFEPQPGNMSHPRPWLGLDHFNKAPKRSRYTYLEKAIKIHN

Question: Which IC50 does the source give for O=C1CCC(=O)N1Cc1cc2nccc(-c3cc(C(F)(F)F)cc4c3N(C3CNC3)CCC4)c2s1 [Example 39] here?
Answer: The IC50 was 10 to 100 nM.

Question: O=C1CCC(=O)N1Cc1cc2nccc(-c3cc(Cl)cc4c3N([C@H]3C[C@@H](O)C3)CCC4)c2s1 [Example 41, Cis-1-[[7-[6-chloro-1-(3-hydroxycyclobutyl)-3,4-dihydro-2H-quinolin-8-yl]thieno[3,2-b]pyridin-2-yl]methyl]pyrrolidine-2,5-dione] was tested. Which IC50 did it give?
Answer: The IC50 was greater than 1000 nM.

Question: For O=C1CCC(=O)N1Cc1cc2nccc(-c3cc(Cl)cc4c3N(C3CCNCC3)CCC4)c2s1 [Example 45, 1-((7-(6-chloro-1-(piperidin-4-yl)-1,2,3,4-tetrahydroquinolin-8-yl)thieno[3,2-b]pyridin-2-yl)methyl)pyrrolidine-2,5-dione], which IC50 is on record?
Answer: The IC50 was 10 to 100 nM.

Question: Which IC50 does the source give for CN1CCC(N2CCCc3cc(Cl)cc(-c4ccnc5cc(CN6C(=O)CCC6=O)sc45)c32)CC1 [Example 46, 1-[[7-[6-chloro-1-(1-methyl-4-piperidyl)-3,4-dihydro-2H-quinolin-8-yl]thieno[3,2-b]pyridin-2-yl]methyl]pyrrolidine-2,5-dione] here?
Answer: The IC50 was 10 to 100 nM.

Question: Which IC50 does the source give for O=C1CCC(=O)N1Cc1cc2nccc(-c3cc(Cl)cc4c3N(C3CNC3)CCC43CC3)c2s1 [Example 48, 1-((7-(1′-(azetidin-3-yl)-6′-chloro-2′,3′-dihydro-1′H-spiro[cyclopropane-1,4′-quinolin]-8′-yl)thieno[3,2-b]pyridin-2-yl)methyl)pyrrolidine-2,5-dione] here?
Answer: Its IC50 is 10 to 100 nM.

Question: With O=C1CCC(=O)N1Cc1cc2nccc(-c3cc(Cl)cc4c3N(CC3CCNCC3)CCC4)c2s1 [Example 49, 1-[[7-[6-chloro-1-(4-piperidylmethyl)-3,4-dihydro-2H-quinolin-8-yl]thieno[3,2-b]pyridin-2-yl]methyl]pyrrolidine-2,5-dione] as the molecule, how does the IC50 read?
Answer: The IC50 was 101 to 1000 nM.

Question: With CN1CCC(CN2CCCc3cc(Cl)cc(-c4ccnc5cc(CN6C(=O)CCC6=O)sc45)c32)CC1 [Example 50, 1-[[7-[6-chloro-1-[(1-methyl-4-piperidyl)methyl]-3,4-dihydro-2H-quinolin-8-yl]thieno[3,2-b]pyridin-2-yl]methyl]pyrrolidine-2,5-dione] as the molecule, how does the IC50 read?
Answer: Its IC50 is 10 to 100 nM.

Question: With O=C1CCC(=O)N1Cc1cc2nccc(-c3cc(Cl)cc4c3N(C3CNC3)C(=O)CO4)c2s1 [Example 53, 1-[[7-[4-(azetidin-3-yl)-7-chloro-3-oxo-1,4-benzoxazin-5-yl]thieno[3,2-b]pyridin-2-yl]methyl]pyrrolidine-2,5-dione] as the molecule, how does the IC50 read?
Answer: The IC50 was 10 to 100 nM.

Question: With O=C1CCC(=O)N1Cc1cc2nccc(-c3cc(Cl)cc4c3N(C3CNC3)CCO4)c2s1 [Example 54, 1-[[7-[4-(azetidin-3-yl)-7-chloro-2,3-dihydro-1,4-benzoxazin-5-yl]thieno[3,2-b]pyridin-2-yl]methyl]pyrrolidine-2,5-dione] as the molecule, how does the IC50 read?
Answer: Its IC50 is 10 to 100 nM.

Question: For O=c1ccn(CC(F)(F)F)c(=O)n1Cc1cc2nccc(-c3cc(Cl)cc4c3N([C@H]3CCNC3)CCC4)c2s1 [Example 55, (S)-3-((7-(6-chloro-1-(pyrrolidin-3-yl)-1,2,3,4-tetrahydroquinolin-8-yl)thieno[3,2-b]pyridin-2-yl)methyl)-1-(2,2,2-trifluoroethyl)pyrimidine-2,4(1H,3H)-dione], which IC50 is on record?
Answer: The IC50 was less than 10 nM.

Question: O=c1ccn(CC(F)(F)F)c(=O)n1Cc1cc2nccc(-c3cc(Cl)cc4c3N([C@@H]3CCNC3)CCC4)c2s1 [Example 56, (R)-3-((7-(6-chloro-1-(pyrrolidin-3-yl)-1,2,3,4-tetrahydroquinolin-8-yl)thieno[3,2-b]pyridin-2-yl)methyl)-1-(2,2,2-trifluoroethyl)pyrimidine-2,4(1H,3H)-dione] was tested. Which IC50 did it give?
Answer: The IC50 was less than 10 nM.

Question: Which IC50 does the source give for O=C1CCC(=O)N1Cc1cc2nccc(-c3cc(Cl)cc4c3N([C@H]3CCNC3)CCC4)c2s1 [Example 57, (S)-1-((7-(6-chloro-1-(pyrrolidin-3-yl)-1,2,3,4-tetrahydroquinolin-8-yl)thieno[3,2-b]pyridin-2-yl)methyl)pyrrolidine-2,5-dione] here?
Answer: Its IC50 is less than 10 nM.
